# Measurements taken from US12084411B2, “Hinokitiol analogues, methods of preparing and pharmaceutical compositions thereof” (The Board of Trustees of the University of Illinois, priority 2018, dated 2024).
# Tests used:
# [1] = tested on: normal MEL cells; assay: Hemoglobinization of normal MEL cells; format: cell-based, mouse; details: same concentration as in deficient system
# Protocol: Cells were then incubated at 37° C. for 72 hours unless otherwise noted. […] Hemoglobinized MEL cells were quantified three days after DMSO induction through o-dianisidine staining similar to previously reported (74). Cells were centrifuged three days after induction and rinsed with PBS. […] Cells were then imaged on an AXIO Zoom […] microscope to obtain color images. The number of stained cells were then quantified via ImageJ analysis and compared to the number of total cells in each image. To determine that hinokitiol requires DMSO induction for hemoglobinization, 2% DMSO was not added at the beginning of the experiment before a 72-hour incubation and o-dianisidine staining.
# [2] = tested on: mice injected with turpentine oil (TO); assay: Acute anemia of inflammation model, turpentine oil injection; format: in vivo; details: once daily for 3 days, 16 h post-injection
# Protocol: FIGS. 27A-27E show hinokitiol efficacy in a model of acute anemia of inflammation (Al). Mice (male; C57BL/6; 7-week-old; n=8-10) were administered turpentine oil (TO) (5 mL/kg) or saline, and euthanized 3, 6, 12, 16, 24 h post injection. (A) Hepcidin mRNA measured by qPCR. (B) Proteins quantified by Western blot analysis. (C) Tissue and serum non-heme iron measured by bathophenanthroline colorimetric assay. (D) Hematocrit measured by centrifugation of heparinized capillaries. (E) Mice given compounds indicated once daily for 3 days. On the third day, mice injected with saline or TO, and euthanized 16 h post-injection.
# Injection of turpentine oil (TO) is a common method to induce inflammation in mice. […] As a result, iron buildup occurred in the duodenum and spleen. Moreover, serum iron decreased (FIG. 27C) without affecting hematocrit values (FIG. 27D).
# [3] = tested on: normal Caco-2 monolayers; assay: Transepithelial iron transport in normal Caco-2 monolayers; format: cell-based, Human; details: same concentration as in deficient system
# Protocol: Media from differentiated Caco-2 monolayers (P25-50, 21-28 days post seeding) grown on PET inserts in 6-well plates was aspirated, and monolayers were rinsed with PBS. […] The monolayers were then incubated for four hours at 37° C. unless otherwise noted. A 100 μL aliquot of the basolateral fluid was removed, diluted in scintillation cocktail, and radioactivity was determined on a liquid scintillation counter to quantify relative amounts of ^55Fe transport. To determine intracellular ^55Fe, the basolateral and apical media was removed, and the monolayer was rinsed with PBS (×2). The cells were then lysed with 500 μL of 200 mM NaOH with nutator mixing overnight, and radioactivity was determined on a liquid scintillation counter after diluting the cell lysate in scintillation cocktail. All values were normalized to shControl monolayers unless otherwise noted. Absolute iron levels were determined through calibration of ^55Fe radioactivity levels with known standards and average mg of protein per membrane was determined by protein lysis with RIPA buffer containing protease inhibitors and quantified through a BCA kit according to manufacturer instructions.
# [4] = tested on: FPN-deficient mice; assay: Acute injection of hinokitiol in flatiron mice, tissue iron; format: in vivo; details: 4 hours
# Protocol: FIGS. 26A-26E show the results of acute injection of Hinokitiol in flatiron mice. Wild-type (+/+) and I (ffe/+) mice were administered hinokitiol by IP injection and were sacrificed after 4 h to measure iron content. (A) presents means f SEM (n=48/group). (B)-(E) present means±SEM (n=2/group). * P≤0.05, ** P≤0.005, and *** P≤0.001.
# To characterize the effects of hinokitiol on iron mobilization and distribution in flatiron mice, hinokitiol was administered with increasing doses (1-50 mg/kg) via intraperitoneal (IP) injection. Mice were euthanized 4 hours post-administration, and blood and a range of tissues were collected. […] Total iron in a variety of tissues including liver and spleen was further measured by inductively coupled plasma mass spectrometry (ICP-MS).
# [5] = tested on: J774; assay: WST-8 toxicity in J774 cells; format: cell-based, mouse; details: J774 macrophages
# Protocol: (§1) Determination of small molecule-mediated toxicity in Caco-2, MEL, and/or J774 cells was performed according to manufacturer instructions using a WST-8 kit (Cayman Chemical 10010199) similar to previously reported (76) using a 1000× stock of the indicated small molecule in DMSO to give the indicated final concentration.
# [6] = WST-8 toxicity in J774 cells; format: cell-based, mouse; details: mouse, wild type J774 cells; Wild Type J774, WST-8 assay after ≥24 hours of incubation
# Protocol: as §1
smiles,measurement,setting,value
CC(C)c1cccc(=O)c(O)c1 [hinokitiol],effect on hemoglobinization in wild type system,[1],negligible effects
same,hypoferremia induced by TO injection,[2],mitigated
same,effect on transepithelial iron transport in wild type system,[3],negligible effects
same,liver total iron (ICP-MS),[4]; 10 mg/kg IP,releases iron from the liver
same,liver non-heme iron,[4]; 1-50 mg/kg IP,dose-dependent decrease
same,non-heme iron in other tissues,[4]; IP,suggestive of reductions in non-heme iron
same,observable toxicity,[5],without observable toxicity
same,EC90,[6],> 100 µM
